The source of these data is ChEMBL document CHEMBL5223180, “Design, Synthesis, and Bioevaluation of Pyrido[2,3-d]pyrimidin-7-ones as Potent SOS1 Inhibitors” (ACS Med Chem Lett, 2023).

The subject of assay [1] is GTPase KRas (Homo sapiens), P01116 [G12D]. Conditions: dose 10.0 µM.
For another assay, the system named is MIA PaCa-2. In words: cells. Conditions: Homo sapiens, MIA PaCa-2, 168 h.
The target in assay [2] is T1, Son of sevenless homolog 1 (Homo sapiens, UniProt Q07889).
T1 sequence (Q07889 whole entry): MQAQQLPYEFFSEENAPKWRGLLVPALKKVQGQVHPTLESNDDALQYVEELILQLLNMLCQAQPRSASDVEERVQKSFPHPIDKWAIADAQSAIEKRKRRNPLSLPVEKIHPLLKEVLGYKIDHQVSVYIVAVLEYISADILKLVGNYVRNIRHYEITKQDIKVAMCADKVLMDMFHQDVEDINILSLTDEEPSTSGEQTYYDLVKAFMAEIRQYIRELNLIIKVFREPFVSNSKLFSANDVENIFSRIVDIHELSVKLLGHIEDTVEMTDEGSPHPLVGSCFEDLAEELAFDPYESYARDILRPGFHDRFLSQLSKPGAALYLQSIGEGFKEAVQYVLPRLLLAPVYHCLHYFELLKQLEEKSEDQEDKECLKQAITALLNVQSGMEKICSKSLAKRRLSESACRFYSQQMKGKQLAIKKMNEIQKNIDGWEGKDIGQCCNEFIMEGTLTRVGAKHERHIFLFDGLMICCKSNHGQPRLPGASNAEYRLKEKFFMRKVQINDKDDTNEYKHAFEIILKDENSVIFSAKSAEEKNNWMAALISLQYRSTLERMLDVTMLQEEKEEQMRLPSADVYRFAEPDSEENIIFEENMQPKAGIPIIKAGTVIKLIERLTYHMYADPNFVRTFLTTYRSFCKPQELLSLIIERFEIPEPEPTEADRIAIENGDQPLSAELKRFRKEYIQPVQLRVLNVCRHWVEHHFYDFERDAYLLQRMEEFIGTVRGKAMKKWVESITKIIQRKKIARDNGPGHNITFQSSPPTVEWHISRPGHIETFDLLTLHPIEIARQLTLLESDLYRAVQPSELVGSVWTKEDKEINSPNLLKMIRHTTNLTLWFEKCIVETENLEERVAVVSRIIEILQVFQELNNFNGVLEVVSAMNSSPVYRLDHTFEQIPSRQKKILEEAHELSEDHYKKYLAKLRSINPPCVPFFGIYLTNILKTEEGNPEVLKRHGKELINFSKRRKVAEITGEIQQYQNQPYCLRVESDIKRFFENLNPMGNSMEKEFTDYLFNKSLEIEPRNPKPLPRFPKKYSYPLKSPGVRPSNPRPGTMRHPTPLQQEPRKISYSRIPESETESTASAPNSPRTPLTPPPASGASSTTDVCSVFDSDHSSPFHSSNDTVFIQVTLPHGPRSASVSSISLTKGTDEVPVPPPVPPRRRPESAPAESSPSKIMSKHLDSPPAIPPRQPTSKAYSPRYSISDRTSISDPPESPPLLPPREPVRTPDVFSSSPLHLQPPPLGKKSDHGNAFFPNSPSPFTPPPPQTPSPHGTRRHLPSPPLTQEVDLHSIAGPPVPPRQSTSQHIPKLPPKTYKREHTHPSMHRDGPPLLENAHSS
In words: Inhibition of 6His-tagged SOS1 (unknown origin) mediated GST-tagged KRAS G12D activation preincubated for 15 mins followed by KRAS G12D addition and measured after 30 mins by HTRF assay.

In assay [3] the target is Epidermal growth factor receptor (Homo sapiens, UniProt P00533). In words: Inhibition of EGFR (unknown origin).
Epidermal growth factor receptor, sequence (P00533 whole entry): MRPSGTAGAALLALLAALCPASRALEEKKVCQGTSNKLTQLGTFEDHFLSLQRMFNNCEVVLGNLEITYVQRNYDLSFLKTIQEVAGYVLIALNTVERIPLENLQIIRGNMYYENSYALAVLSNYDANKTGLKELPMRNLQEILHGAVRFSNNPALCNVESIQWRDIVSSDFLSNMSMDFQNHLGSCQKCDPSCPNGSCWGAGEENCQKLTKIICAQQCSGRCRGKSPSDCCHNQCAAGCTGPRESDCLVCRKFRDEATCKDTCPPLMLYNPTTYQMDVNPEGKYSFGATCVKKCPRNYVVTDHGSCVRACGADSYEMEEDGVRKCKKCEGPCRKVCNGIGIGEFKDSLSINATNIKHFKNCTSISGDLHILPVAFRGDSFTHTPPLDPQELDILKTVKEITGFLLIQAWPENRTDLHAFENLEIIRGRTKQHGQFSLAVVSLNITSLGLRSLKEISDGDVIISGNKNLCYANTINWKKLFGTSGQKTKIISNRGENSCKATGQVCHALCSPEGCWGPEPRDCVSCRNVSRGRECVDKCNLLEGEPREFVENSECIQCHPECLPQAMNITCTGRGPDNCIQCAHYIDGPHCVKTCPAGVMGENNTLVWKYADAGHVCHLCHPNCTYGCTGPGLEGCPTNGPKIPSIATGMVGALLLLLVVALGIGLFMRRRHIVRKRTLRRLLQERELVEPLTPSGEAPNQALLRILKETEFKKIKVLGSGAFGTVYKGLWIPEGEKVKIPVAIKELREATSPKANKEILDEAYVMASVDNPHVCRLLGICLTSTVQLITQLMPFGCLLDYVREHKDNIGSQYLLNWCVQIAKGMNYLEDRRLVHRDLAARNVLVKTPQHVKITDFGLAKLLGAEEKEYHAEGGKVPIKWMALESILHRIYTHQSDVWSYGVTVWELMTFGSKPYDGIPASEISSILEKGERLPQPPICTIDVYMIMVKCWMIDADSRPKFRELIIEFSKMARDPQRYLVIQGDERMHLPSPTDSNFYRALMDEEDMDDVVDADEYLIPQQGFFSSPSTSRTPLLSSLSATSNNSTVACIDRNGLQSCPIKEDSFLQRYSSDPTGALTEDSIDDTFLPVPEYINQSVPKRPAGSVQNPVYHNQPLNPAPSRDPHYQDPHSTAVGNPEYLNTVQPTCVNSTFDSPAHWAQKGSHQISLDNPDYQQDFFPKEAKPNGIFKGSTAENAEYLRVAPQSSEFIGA
Assay [4] has as its target Fibroblast growth factor receptor 1 (Homo sapiens, UniProt P11362). In words: Inhibition of FGFR1 (unknown origin).
In assay [5] the target is Cyclin-dependent kinase 4 (Homo sapiens, UniProt P11802). In words: Inhibition of CDK4 (unknown origin).
Cyclin-dependent kinase 4, sequence (P11802 whole entry): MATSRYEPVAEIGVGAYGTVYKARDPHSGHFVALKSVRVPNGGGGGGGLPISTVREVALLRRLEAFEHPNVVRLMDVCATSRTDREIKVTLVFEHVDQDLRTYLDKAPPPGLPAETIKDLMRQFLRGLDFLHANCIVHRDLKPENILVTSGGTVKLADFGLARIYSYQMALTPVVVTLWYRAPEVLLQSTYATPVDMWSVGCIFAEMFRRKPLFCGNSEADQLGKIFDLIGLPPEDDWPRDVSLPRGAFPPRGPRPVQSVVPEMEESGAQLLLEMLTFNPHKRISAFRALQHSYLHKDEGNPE
In assay [6] the target is Receptor tyrosine-protein kinase erbB-2 (Homo sapiens, UniProt P04626). In words: Inhibition of HER2 (unknown origin).
Receptor tyrosine-protein kinase erbB-2, sequence (P04626 whole entry): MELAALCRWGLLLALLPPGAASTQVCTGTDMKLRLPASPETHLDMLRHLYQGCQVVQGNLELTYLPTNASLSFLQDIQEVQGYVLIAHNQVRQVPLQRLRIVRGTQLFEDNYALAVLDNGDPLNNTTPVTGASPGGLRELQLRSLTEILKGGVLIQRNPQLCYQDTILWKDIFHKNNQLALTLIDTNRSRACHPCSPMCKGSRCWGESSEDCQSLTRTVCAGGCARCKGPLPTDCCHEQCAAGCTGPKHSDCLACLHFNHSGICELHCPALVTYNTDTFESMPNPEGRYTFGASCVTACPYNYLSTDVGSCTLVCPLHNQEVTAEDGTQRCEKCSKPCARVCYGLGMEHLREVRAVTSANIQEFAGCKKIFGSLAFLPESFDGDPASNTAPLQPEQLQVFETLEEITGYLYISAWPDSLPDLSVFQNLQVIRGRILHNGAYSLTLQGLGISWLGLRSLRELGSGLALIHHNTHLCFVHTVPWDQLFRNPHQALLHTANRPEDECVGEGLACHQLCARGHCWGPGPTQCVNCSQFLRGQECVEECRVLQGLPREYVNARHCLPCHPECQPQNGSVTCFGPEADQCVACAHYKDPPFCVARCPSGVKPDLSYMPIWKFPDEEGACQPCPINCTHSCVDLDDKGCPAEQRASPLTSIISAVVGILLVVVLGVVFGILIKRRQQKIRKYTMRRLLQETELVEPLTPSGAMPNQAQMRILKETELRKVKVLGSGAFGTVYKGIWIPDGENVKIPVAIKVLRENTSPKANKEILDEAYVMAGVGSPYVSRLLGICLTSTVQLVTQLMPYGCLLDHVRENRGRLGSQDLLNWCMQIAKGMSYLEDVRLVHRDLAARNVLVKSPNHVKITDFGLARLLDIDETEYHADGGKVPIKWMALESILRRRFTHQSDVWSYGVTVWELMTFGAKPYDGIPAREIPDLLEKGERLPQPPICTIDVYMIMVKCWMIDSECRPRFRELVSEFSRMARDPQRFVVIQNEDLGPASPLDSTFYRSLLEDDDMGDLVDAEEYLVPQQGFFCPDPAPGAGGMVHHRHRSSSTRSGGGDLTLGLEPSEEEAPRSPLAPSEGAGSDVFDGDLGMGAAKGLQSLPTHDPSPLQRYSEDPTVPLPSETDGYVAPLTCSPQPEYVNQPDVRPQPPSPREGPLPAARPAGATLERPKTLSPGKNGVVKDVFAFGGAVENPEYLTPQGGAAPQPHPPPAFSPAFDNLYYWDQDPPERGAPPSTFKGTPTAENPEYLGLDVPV
The target in assay [7] is Platelet-derived growth factor receptor alpha (Homo sapiens, UniProt P16234). In words: Inhibition of PDGFRalpha (unknown origin).
Platelet-derived growth factor receptor alpha, sequence (P16234 whole entry): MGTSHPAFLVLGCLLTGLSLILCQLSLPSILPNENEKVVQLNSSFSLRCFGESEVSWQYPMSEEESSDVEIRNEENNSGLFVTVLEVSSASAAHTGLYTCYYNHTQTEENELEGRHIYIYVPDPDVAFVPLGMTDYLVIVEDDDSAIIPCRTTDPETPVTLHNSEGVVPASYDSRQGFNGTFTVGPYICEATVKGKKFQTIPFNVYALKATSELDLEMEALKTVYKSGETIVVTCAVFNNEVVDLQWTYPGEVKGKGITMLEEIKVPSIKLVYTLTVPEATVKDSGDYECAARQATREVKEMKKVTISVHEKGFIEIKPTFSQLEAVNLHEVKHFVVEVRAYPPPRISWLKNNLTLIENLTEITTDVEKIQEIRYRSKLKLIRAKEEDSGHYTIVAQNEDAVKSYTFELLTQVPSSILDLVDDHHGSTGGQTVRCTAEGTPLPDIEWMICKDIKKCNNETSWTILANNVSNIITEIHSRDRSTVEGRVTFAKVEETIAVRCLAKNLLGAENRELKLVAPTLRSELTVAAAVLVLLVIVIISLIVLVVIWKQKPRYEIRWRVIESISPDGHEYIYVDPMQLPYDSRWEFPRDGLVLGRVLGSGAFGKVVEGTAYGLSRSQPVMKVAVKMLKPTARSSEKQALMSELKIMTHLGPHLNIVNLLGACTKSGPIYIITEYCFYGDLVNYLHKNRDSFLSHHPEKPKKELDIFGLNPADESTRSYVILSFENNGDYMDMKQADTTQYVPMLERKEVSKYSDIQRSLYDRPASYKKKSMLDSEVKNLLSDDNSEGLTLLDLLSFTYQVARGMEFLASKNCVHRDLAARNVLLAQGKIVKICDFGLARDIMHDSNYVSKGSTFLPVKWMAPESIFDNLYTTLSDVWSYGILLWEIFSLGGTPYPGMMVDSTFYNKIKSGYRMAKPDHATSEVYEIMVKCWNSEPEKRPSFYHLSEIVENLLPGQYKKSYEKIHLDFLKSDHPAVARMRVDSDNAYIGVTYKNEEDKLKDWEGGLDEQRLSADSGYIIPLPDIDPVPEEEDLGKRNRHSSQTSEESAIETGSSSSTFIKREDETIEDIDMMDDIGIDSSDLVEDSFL
The target of assay [8] is Cyclin-dependent kinase 2 (Homo sapiens, UniProt P24941). In words: Inhibition of CDK2 (unknown origin).

Fibroblast growth factor receptor 1, sequence (P11362 whole entry): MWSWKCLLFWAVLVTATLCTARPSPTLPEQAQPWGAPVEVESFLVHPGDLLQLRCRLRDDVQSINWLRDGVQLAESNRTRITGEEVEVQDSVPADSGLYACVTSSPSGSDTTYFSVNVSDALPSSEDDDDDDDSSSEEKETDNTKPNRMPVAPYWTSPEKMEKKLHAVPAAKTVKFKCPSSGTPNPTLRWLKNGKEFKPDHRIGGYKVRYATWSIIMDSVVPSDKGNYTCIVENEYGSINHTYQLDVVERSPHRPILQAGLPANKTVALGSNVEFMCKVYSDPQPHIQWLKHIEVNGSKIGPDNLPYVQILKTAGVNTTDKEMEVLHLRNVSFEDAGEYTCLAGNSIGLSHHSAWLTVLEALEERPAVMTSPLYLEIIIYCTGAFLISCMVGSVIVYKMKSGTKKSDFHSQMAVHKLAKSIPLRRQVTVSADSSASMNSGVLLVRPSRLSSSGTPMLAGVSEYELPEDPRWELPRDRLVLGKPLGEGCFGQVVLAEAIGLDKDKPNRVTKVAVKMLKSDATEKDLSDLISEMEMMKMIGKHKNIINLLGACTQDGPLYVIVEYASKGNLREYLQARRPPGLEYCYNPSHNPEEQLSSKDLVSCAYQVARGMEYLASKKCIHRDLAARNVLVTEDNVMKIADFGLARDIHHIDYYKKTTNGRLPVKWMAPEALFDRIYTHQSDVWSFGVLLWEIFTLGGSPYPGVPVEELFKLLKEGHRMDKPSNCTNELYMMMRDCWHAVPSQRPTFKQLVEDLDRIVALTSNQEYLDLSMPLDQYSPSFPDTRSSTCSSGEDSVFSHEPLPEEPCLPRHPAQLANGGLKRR
GTPase KRas (Homo sapiens), P01116 [G12D], sequence (P01116 whole entry G12D, looked up): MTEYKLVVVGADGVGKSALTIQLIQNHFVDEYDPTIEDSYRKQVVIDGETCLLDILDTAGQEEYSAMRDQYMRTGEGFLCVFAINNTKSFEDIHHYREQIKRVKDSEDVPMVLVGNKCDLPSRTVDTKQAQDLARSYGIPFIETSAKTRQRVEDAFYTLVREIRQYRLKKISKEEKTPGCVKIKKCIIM

Regarding `COc1cc2nc(C)nc(N[C@H](C)c3cc(N)cc(C(F)(F)F)c3)c2cc1O[C@H]1CCOC1`, the shift in melting temperature (ΔTm) in assay [1] amounted to 0 °C. This compound also returned an IC50 in the assay on MIA PaCa-2 of 0.03 µM.

In assay [2], `CC(=O)N1CCC(c2cc3c(Nc4cccc(C(F)(F)F)c4)ncnc3n(C)c2=O)CC1` yielded an IC50 of over 5 µM.

`C[C@@H](Nc1ncnc2c1ccc(=O)n2C)c1cc(N)cc(C(F)(F)F)c1`: in [2], the IC50 is over 5 µM.

With `CC(=O)Nc1cc2c(N[C@H](C)c3cc(N)cc(C(F)(F)F)c3)ncnc2n(C)c1=O`, the half-inhibitory concentration (IC50) in [2] is over 5 µM.

Turning to `CC(=O)N1CCC(c2cc3c(N[C@H](C)c4cc(N)cc(C(F)(F)F)c4)nc(C)nc3n(C)c2=O)CC1`, the IC50 in assay [3], in assay [4], in [5], in assay [6], in assay [7] and in [8] was over 10 µM each time.

In turn, `C[C@@H](Nc1ncnc2c1cc(NC1CCCCC1)c(=O)n2C)c1cc(N)cc(C(F)(F)F)c1` had an IC50 in assay [2] of over 5 µM.

For the compound `C[C@@H](Nc1ncnc2c1cc(N)c(=O)n2C)c1cc(N)cc(C(F)(F)F)c1`, the IC50 in assay [2] is over 5 µM.

One may read the ΔTm as the shift of the melting midpoint relative to a reference. The IC50 is the concentration that inhibits the measured activity by half.
